Data as given in paper PMC4179164, “Ophiobolin A from Bipolaris oryzae Perturbs Motility and Membrane Integrities of Porcine Sperm and Induces Cell Death on Mammalian Somatic Cell Lines” (Toxins, 2014).
Converted amounts (≈) assume the structure as drawn.

Columns and labels:
[1] = system: boar spermatozoa; assay: Shivering tail beating induction in exposed sperm cells; type: cell-based
Method: (§1) This phenomenon may indicate that the cell still produce ATP and NADH in the cytoplasm after the OPA treatment, which differs from the effect caused by cation channel forming alamethicin, which depletes the sperm cells from motility, plasma membrane integrity as well as NADH and ATP production at similar concentrations. To confirm the effect of OPA on the plasma membrane permeability, the viability staining with propidium iodide (PI) and calcein-AM was performed after one day incubation at room temperature, (similar conditions as the JC-1 staining) where the EC50 value appeared at 1.6 μg mL^−1, over twice the concentrations that depolarized the mitochondria (Table 1).
Microscopic area containing shivering sperm cell is enlarged at top right of the picture.

[2] = system: boar spermatozoa; assay: Cell membrane permeability assay on static sperm cells (PI and calcein-AM staining); type: cell-based; settings: 24 h, read-out: Toxic endpoint EC50, Permeability to PI on static cells
Method: as §1
Cell membrane permeability assay on motile sperm cells was inspected by staining with PI (Molecular Probes, Eugene, OR, USA) in sperm cells induced to swim by shaking at 37 °C. […] This suspension was incubated for 15 min at 37 °C in dark and measured using a microplate reader (Fluoroskan Ascent, Thermo Scientific, Vantaa, Finland) at excitation and emission wavelengths of 544 nm and 600 nm, respectively. For observing plasma membrane damage by PI staining frozen-thawed semen was used as a positive control (for mortality of 100%) representing the maximal fluorescence emitted by the cells permeable to PI and Dulbeco’s phosphate buffered saline was applied as background control (blank). […]

[3] = system: human umbilical vein endothelial cells (HUVECs); settings: cited from earlier work
[4] = system: murine neuroblastoma (MNA) cells; assay: Somatic cell toxicity assay (resazurin reduction), MNA; type: cell-based; settings: Mus musculus, read-out: IC50, cell proliferation
Method: (§2) Viability assays, based on resazurin-resorufin transformation, represent excellent correlation to generally used reference assays, such as formazan- and tritiated thymidine based methods. In our experiments, proliferating murine neuroblastoma (MNA), feline fetus lung (FFL) and porcine kidney (PK-15) cells were treated with OPA. […] These values were remarkably less than the concentrations causing sperm toxicity and motility inhibition.
(§3) Cytotoxicity against somatic cells was tested with feline fetus lung cells (FFL) cultivated as described by Andersson et al. and murine neuroblastoma cells (MNA) as described by Kulonen et al. as well as porcine kidney tubular epithelial cell line (PK-15), cultured as reported earlier. All somatic cell lines were maintained in an atmosphere of 95% air, 5% CO2 and 95% relative humidity at 37 °C on RPMI 1640 (complete medium) in a cell culture cabinet (Heracell 150i; Thermo Fisher Scientific, Vantaa, Finland). The detached cells were seeded onto 96 well microtiter plates and exposed to the purified OPA, the final concentration of which ranged from 48.8 ng mL^−1 to 25 μg mL^−1 containing 10 levels in methanol. […] Then, the plates were analyzed by a microtiter plate reader (Fluoroskan Ascent, Thermo Scientific, Vantaa, Finland) at the excitation and emission wavelengths of 544 nm and 590 nm, respectively. […]

[5] = system: feline fetus lung (FFL) cells; assay: Somatic cell toxicity assay (resazurin reduction), FFL; type: cell-based; settings: Felis catus, read-out: IC50, cell proliferation
Method: as §2, §3

[6] = system: boar spermatozoa; assay: Dissipation of mitochondrial membrane potential (ΔΨm), JC-1 staining; type: cell-based
Method: The membrane-permeable 5,5',6,6'-tetrachloro-1,1',3,3'-tetraethylbenzimidazolylcarbocyanine iodide (JC-1) dye is widely used in apoptosis studies to monitor mitochondrial health. […] Therefore, the loss of ΔΨm was seen as decrease in orange fluorescence. In our cases, the staining for […] with JC-1 at 37 °C was enough to get the energized mitochondria stained orange and the plasma membrane green. This short staining was empirically optimized for getting the most reproducible differences between vehicle and toxin exposed sperm cells in Hoornstra et al.. After 2 min incubation, OPA completely depolarized the mitochondrial membrane of the sperm cells at the concentration of 1.25 μg mL^−1 and the exposed cells have already lost approximately 50% of their bright fluorescing mitochondria at the concentration of 500 ng mL^−1 (Figure 3, Table 1).
The dissipation of the ΔΨm on static cells at room temperature was visualized by 5,5',6,6'-tetrachloro-1,1',3,3'-tetraethylbenzimidazolylcarbocyanine iodide (JC-1) (Molecular Probes, Eugene, OR, USA) staining according to Hoornstra et al. with minor modifications as follows: 200 μL of the boar semen exposed with the final OPA concentration of 2.5 μg mL^−1, 1.25 μg mL^−1, 0.5 μg mL^−1 and 0.125 μg mL^−1 was incubated at 37 °C for 2 min, stained with 0.3 μL of JC-1 (1 mg mL^−1 in DMSO) followed by another 2 min at 37 °C and viewed using an epifluorescence microscope (Eclipse E600, Nikon, Tokyo, Japan). All assays (PI + CAM and JC-1 staining) were performed in triplicate and for each sample five microscopic fields containing ca. 20 cells were inspected.

With `CC(C)=C[C@H]1C[C@H](C)[C@]2(CC[C@]3(C)C[C@H]4[C@H](C(=O)C[C@@]4(C)O)/C(C=O)=C\C[C@H]32)O1` [OPA, ophiobolin A] the EC50 ([1]; Spermatozoa, read-out: Toxic endpoint EC50, Shivering tail beating induction) was 0.5 µg/mL (≈ 1.25 µM), the “Concentration inducing shivering tail beating with depolarisation of mitochondria” value ([1]; exposure at room temperature) was under 1 µg/mL and the EC50 [2] was 1.6 µg/mL (≈ 3.99 µM). For the same compound, the “IC50, reduction in the amount of viable cells” value [3] was 32 µg/mL, the IC50 [4] was under 0.0488 µg/mL and the IC50 [5] was 0.0488 µg/mL (≈ 0.122 µM). For the same compound, the “Effect on JC-1 mitochondrial fluorescence” value ([6]; 125 ng mL^−1 OPA, JC-1 staining) was “minimal difference compared to the untreated control”, the “Loss of bright fluorescing mitochondria” value ([6]; 500 ng mL^−1 OPA, JC-1 staining) was “approximately 50%” and the “Concentration completely depolarizing the mitochondrial membrane of the sperm cells” value ([6]; JC-1 staining, 2 min incubation at 37 °C) was 1.25 µg/mL. It also gave an EC50 ([6]; Spermatozoa, read-out: Toxic endpoint EC50, Dissipation of ΔΨm) of 0.5 µg/mL (≈ 1.25 µM).
